Results on 48 molecules are retold here after patent US20240285598A1 (priority 2021, published 2024).

The test system of the first data set is SARS-CoV-2. Briefly: Antiviral assay (viral RNA in culture supernatant by RT-qPCR). Conditions: Severe acute respiratory syndrome coronavirus 2, 72 h, read-out: CC50 (Antiviral Data), MOI of 0.05, 72 h, 96-well plate, RT-qPCR of viral RNA.
For `CCCN(CCC)[C@@H]1C[C@@H](C(=O)NC(C#N)C[C@@H]2CCNC2=O)N(C(=O)[C@@H](NC(=O)C(F)(F)F)C(C)(C)C)C1` (stereo partly drawn), the CC50 was > 100 µM. The same measure, in the same setting: the same measure for `CC(C)(C)OC(=O)N1C[C@H]2[C@@H]([C@H]1C(=O)N[C@H](C#N)C[C@@H]1CCNC1=O)C2(C)C`: > 100 µM. Still for that read-out and setting: to `CCCN(CCC)[C@@H]1C[C@@H](C(=O)NC(C#N)C[C@@H]2CCNC2=O)N(C(=O)[C@@H](NC(=O)OC(C)(C)C)C(C)(C)C)C1` (stereo partly drawn) belongs 10.1 to 100 µM. Still for that read-out and setting: the same measure for `CCCO[C@@H]1C[C@@H](C(=O)NC(C#N)C[C@@H]2CCNC2=O)N(C(=O)[C@@H](NC(=O)NC(C)(C)C)C(C)(C)C)C1` (stereo partly drawn): > 100 µM; for `CC(C)(C)NC(=O)N[C@H](C(=O)N1C[C@H]2[C@@H]([C@H]1C(=O)NC(C#N)C[C@@H]1CCNC1=O)C2(C)C)C(C)(C)C` (stereo partly drawn): > 100 µM. Take `CCCN(CCC)[C@@H]1C[C@@H](C(=O)NC(C#N)C[C@@H]2CCNC2=O)N(C(=O)[C@@H](NC(=O)NC(C)(C)C)C(C)(C)C)C1` (stereo partly drawn): the CC50 was > 100 µM.

As to `CC(C)(C)[C@H](NC(=O)C(F)(F)F)C(=O)N1C[C@H](N2CCC(F)(F)CC2)C[C@H]1C(=O)NC(C#N)C[C@@H]1CCNC1=O` (stereo partly drawn), the CC50 was > 100 µM. The same measure, in the same setting: the same measure for `CCCN(CCC)[C@@H]1C[C@@H](C(=O)NC(C#N)C[C@@H]2CCNC2=O)N(C(=O)[C@@H](NC(=O)OCc2ccccc2)C(C)(C)C)C1` (stereo partly drawn): 10.1 to 100 µM; for `CCCN(CCC)[C@@H]1C[C@@H](C(=O)NC(C#N)C[C@@H]2CCNC2=O)N(C(=O)[C@@H](NC(=O)OCc2ccccn2)C(C)(C)C)C1` (stereo partly drawn): > 100 µM. Still for that read-out and setting: to `CCCN(CCC)[C@@H]1C[C@@H](C(=O)NC(C#N)C[C@@H]2CCNC2=O)N(C(=O)[C@@H](NC(=O)OCc2cccnc2)C(C)(C)C)C1` (stereo partly drawn) belongs > 100 µM; to `CCCN(CCC)[C@@H]1C[C@@H](C(=O)NC(C#N)C[C@@H]2CCNC2=O)N(C(=O)[C@@H](NC(=O)OCc2ccncc2)C(C)(C)C)C1` (stereo partly drawn), > 100 µM; to `CCCN(CCC)[C@@H]1C[C@@H](C(=O)NC(C#N)C[C@@H]2CCNC2=O)N(C(=O)C(C)(C)NC(=O)C(F)(F)F)C1` (stereo partly drawn), > 100 µM.

Consider `CCCN(CCC)[C@@H]1C[C@@H](C(=O)NC(C#N)C[C@@H]2CCNC2=O)N(C(=O)C(C)(C)NC(=O)OCc2ccccc2)C1` (stereo partly drawn), for which the CC50 is > 100 µM. Turning to `CC(C)(NC(=O)C(F)(F)F)C(=O)N1C[C@H]2[C@@H]([C@H]1C(=O)N[C@H](C#N)C[C@@H]1CCNC1=O)C2(C)C`, the CC50 was > 100 µM. Still for that read-out and setting: the same measure for `CC(C)(C)[C@H](NC(=O)OCc1ccccc1)C(=O)N1CCC(F)(F)C[C@H]1C(=O)NC(C#N)C[C@@H]1CCNC1=O` (stereo partly drawn): 10.1 to 100 µM; for `CC(C)(C)[C@H](NC(=O)OCc1ccncc1)C(=O)N1C[C@H]2[C@@H]([C@H]1C(=O)N[C@H](C#N)C[C@@H]1CCNC1=O)C2(C)C`: 1 to 10 µM; for `CC(C)(C)C(NC(=O)OCc1ccncc1)C(=O)N1C[C@H]2[C@@H]([C@H]1C(=O)N[C@H](C#N)C[C@@H]1CCCNC1=O)C2(C)C` (stereo partly drawn): 1 to 10 µM. The same measure, in the same setting: the same measure for `CCCN(CCC)[C@@H]1C[C@@H](C(=O)NC(C#N)C[C@@H]2CCNC2=O)N(C(=O)[C@@H](NC(=O)C(Cl)(Cl)Cl)C(C)(C)C)C1` (stereo partly drawn): > 100 µM. Still for that read-out and setting: to `CCCO[C@@H]1C[C@@H](C(=O)NC(C#N)C[C@@H]2CCNC2=O)N(C(=O)[C@@H](NC(=O)OC(C)(C)C)C(C)(C)C)C1` (stereo partly drawn) belongs 10.1 to 100 µM. On to `CCCO[C@@H]1C[C@@H](C(=O)NC(C#N)C[C@@H]2CCNC2=O)N(C(=O)[C@@H](NC(=O)OCc2ccccc2)C(C)(C)C)C1` (stereo partly drawn), for which the CC50 lay in the range of 1 to 10 µM. Same read-out and setting: the same measure for `CC(C)O[C@@H]1C[C@@H](C(=O)NC(C#N)C[C@H]2CCNC2=O)N(C(=O)[C@@H](NC(=O)OCc2ccccn2)C(C)(C)C)C1` (stereo partly drawn): > 100 µM. Still for that read-out and setting: to `CC(C)O[C@@H]1C[C@@H](C(=O)NC(C#N)C[C@H]2CCNC2=O)N(C(=O)[C@@H](NC(=O)OCc2cccnc2)C(C)(C)C)C1` (stereo partly drawn) belongs > 100 µM.

`CC(C)O[C@@H]1C[C@@H](C(=O)NC(C#N)C[C@H]2CCNC2=O)N(C(=O)[C@@H](NC(=O)OC(C)(C)C)C(C)(C)C)C1` (stereo partly drawn): the CC50 lay in the range of 10.1 to 100 µM. Still for that read-out and setting: the same measure for `CC(C)O[C@@H]1C[C@@H](C(=O)NC(C#N)C[C@H]2CCNC2=O)N(C(=O)[C@@H](NC(=O)C(O)c2ccco2)C(C)(C)C)C1` (stereo partly drawn): > 100 µM. Still for that read-out and setting: the same measure for `CC(C)O[C@@H]1C[C@@H](C(=O)NC(C#N)C[C@H]2CCNC2=O)N(C(=O)[C@@H](NC(=O)OCc2ccncc2)C(C)(C)C)C1` (stereo partly drawn): > 100 µM. In the case of `CC(C)O[C@@H]1C[C@@H](C(=O)NC(C#N)C[C@H]2CCNC2=O)N(C(=O)[C@@H](NC(=O)C(F)(F)F)C(C)(C)C)C1` (stereo partly drawn), the CC50 was 10.1 to 100 µM. Still for that read-out and setting: to `CCCN(CCC)[C@@H]1C[C@@H](C(=O)N[C@H](C#N)Cc2cc(C)n[nH]2)N(C(=O)C(NC(=O)C(F)(F)F)C(C)(C)C)C1` (stereo partly drawn) belongs > 100 µM; to `Cc1cc(C[C@@H](C#N)NC(=O)[C@@H]2[C@@H]3[C@H](CN2C(=O)[C@H](NC(=O)C(F)(F)F)C(C)(C)C)C3(C)C)[nH]n1`, 10.1 to 100 µM. With `CCCN(CCC)[C@@H]1C[C@@H](C(=O)NC(C#N)Cc2cc(OS(=O)(=O)c3ccc(C)cc3)n(S(=O)(=O)c3ccc(C)cc3)n2)N(C(=O)[C@@H](NC(=O)C(F)(F)F)C(C)(C)C)C1` (stereo partly drawn), the CC50 was > 100 µM. Still for that read-out and setting: the same measure for `Cc1cc(C[C@@H](C#N)NC(=O)[C@@H]2[C@@H]3[C@H](CN2C(=O)[C@H](NC(=O)C2C4CO[C@@H]5OC[C@@H]2C5C4)C(C)(C)C)C3(C)C)[nH]n1` (stereo partly drawn): > 100 µM; for `CC(C)Cc1cc(C[C@@H](C#N)NC(=O)[C@@H]2[C@@H]3[C@H](CN2C(=O)[C@H](NC(=O)C(F)(F)F)C(C)(C)C)C3(C)C)[nH]n1`: > 100 µM; for `CC(C)(C)[C@@H](NC(=O)C(F)(F)F)C(=O)N1C[C@H]2[C@@H]([C@H]1C(=O)N[C@H](C#N)Cc1cc(CO)n[nH]1)C2(C)C`: > 100 µM. Still for that read-out and setting: to `CCCN(CCC)[C@@H]1C[C@@H](C(=O)NC(C#N)Cc2cn[nH]c2O)N(C(=O)[C@@H](NC(=O)C(F)(F)F)C(C)(C)C)C1` (stereo partly drawn) belongs > 100 µM. On the same count and under the same terms, to `CC(C)(C)[C@H](NC(=O)C(F)(F)F)C(=O)N1C[C@H]2[C@@H]([C@H]1C(=O)NC(C#N)Cc1cn[nH]c1O)C2(C)C` (stereo partly drawn) belongs > 100 µM; to `CC(C)(C)C(=O)N[C@H](C(=O)N1C[C@H]2[C@@H]([C@H]1C(=O)N[C@H](C#N)C[C@@H]1CCNC1=O)C2(C)C)C(C)(C)C`, 1 to 10 µM; to `CC(C)(C)[C@H](NC(=O)C(Cl)(Cl)Cl)C(=O)N1C[C@H]2[C@@H]([C@H]1C(=O)N[C@H](C#N)C[C@@H]1CCNC1=O)C2(C)C`, > 100 µM.

With `CC(C)(C)[C@H](NC(=O)C(F)(F)F)C(=O)N1Cc2ccccc2CC1C(=O)N[C@@H](C#N)C[C@@H]1CCNC1=O` (stereo partly drawn), the CC50 was > 100 µM. Same read-out and setting: to `CC(C)(C)[C@H](NC(=O)C(Cl)(Cl)Cl)C(=O)N1C[C@H]2[C@@H]([C@H]1C(=O)N[C@H](C#N)C[C@@H]1CCCNC1=O)C2(C)C` belongs > 100 µM; to `CC(C)(C)[C@H](NC(=O)C(F)(F)F)C(=O)N1CCN(Cc2ccccc2)CC1C(=O)N[C@@H](C#N)C[C@@H]1CCNC1=O` (stereo partly drawn), > 100 µM; to `CC(C)(C)OC(=O)N[C@H](C(=O)N1CCN(C(=O)OC(C)(C)C)CC1C(=O)N[C@@H](C#N)C[C@@H]1CCNC1=O)C(C)(C)C` (stereo partly drawn), > 100 µM. On the same count and under the same terms, the same measure for `CC(C)(C)OC(=O)N[C@H](C(=O)N1CCN(C(=O)OC(C)(C)C)C[C@H]1C(=O)NC(C#N)CC1CCNC1=O)C(C)(C)C` (stereo partly drawn): > 100 µM; for `CC(C)(C)OC(=O)N[C@H](C(=O)N1Cc2ccccc2C[C@H]1C(=O)NC(C#N)CC1CCNC1=O)C(C)(C)C` (stereo partly drawn): > 100 µM; for `CC(C)(C)[C@H](NC(=O)c1ccccc1)C(=O)N1C[C@H]2[C@@H]([C@H]1C(=O)N[C@H](C#N)C[C@@H]1CCNC1=O)C2(C)C` [drawing 68]: 10.1 to 100 µM.

Staying with this data set, now noted: read-out: CC50 (Antiviral Data); MOI of 0.05, 72 h, 96-well plate, RT-qPCR of viral RNA.
As to `CC(C)(C)[C@H](NC(=O)C(F)(F)F)C(=O)N1C[C@H]2[C@@H]([C@H]1C(=O)N[C@H](C#N)C[C@@H]1CCNC1=O)C2(C)C` [drawing 61], the CC50 is 10.1 to 100 µM. Regarding `CC(C)(C)[C@H](NC(=O)C(F)(F)F)C(=O)N1C[C@H]2[C@@H]([C@H]1C(=O)N[C@H](C#N)C[C@@H]1CCCNC1=O)C2(C)C` [drawing 62], the CC50 was 10.1 to 100 µM. The same measure, in the same setting: to `CC(C)(C)[C@H](NC(=O)C(F)(F)F)C(=O)N1C[C@H]2[C@@H]([C@H]1C(=O)N[C@H](C#N)C[C@@H]1CCNC1=O)C2(C)C` [drawing 94] belongs > 100 µM; to `CC(C)(C)[C@H](NC(=O)C(F)(F)F)C(=O)N1C[C@H]2[C@@H]([C@H]1C(=O)N[C@H](C#N)C[C@@H]1CCCNC1=O)C2(C)C` [drawing 95], 1 to 10 µM. Same read-out and setting: to `CC(C)(C)[C@H](NC(=O)c1ccccc1)C(=O)N1C[C@H]2[C@@H]([C@H]1C(=O)N[C@H](C#N)C[C@@H]1CCNC1=O)C2(C)C` [drawing 101] belongs 10.1 to 100 µM.
